Measurements as given in patent US20250122181A1, “BENZIMIDAZOLES AS MODULATORS OF IL-17” (Janssen Pharmaceutica NV, priority 2021, published 2025).

Assays:
[1] = target: T1, IL-17A(FLAG-Tagged): IL-17RA(His-Tagged) (Homo sapiens, UniProt Q16552, K93Q); assay: IL-17A(FLAG-Tagged): IL-17RA(His-Tagged) Binding Disruption Eu-HTRF Assay, Protocol 1; conditions: Protocol 1, FLAG tagged IL-17A 2.5 nM; simple average if tested more than once
How it was run: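 IC50 came from a one-site competition fit of the acceptor/donor (665/620 nm) HTRF ratio. His-tagged IL-17RA, Eu-anti-FLAG and D2-anti-His were added after a 1 h rt compound preincubation with FLAG-tagged IL-17A dimer in PBS/0.01% Triton X-100, followed by 2 h at rt before reading.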

[2] = target: T1, IL-17A(FLAG-Tagged): IL-17RA(His-Tagged); assay: IL-17A(FLAG-Tagged): IL-17RA(His-Tagged) Binding Disruption Eu-HTRF Assay, Protocol 2; conditions: Protocol 2, FLAG tagged IL-17A 1 nM; simple average if tested more than once
Text: An antibody directed against the FLAG tag of IL-17A (SEQ ID NO: 1) is labeled with the HTRF donor chromophore (Europium-cryptate). IL-17A is present as a dimer that is “locked into” this quaternary structure due to the formation of loop-spanning […] disulfide bridges. The construct of IL-17RA used in the assay excludes the […] portion of the receptor and is fused to a C-terminal 10×His tag (SEQ ID NO:2). An antibody directed against the His tag of the IL-17RA chimera is labeled with the HTRF acceptor chromophore (“D2”). The fluorescence-resonance energy transfer (FRET) depends on the vicinity of the donor chromophore to the acceptor, and interruption of the binding between the IL-17A and IL-17RA causes the reduction/loss of FRET. Therefore, this assay allows to evaluate the compound effect on the binding IL-17A and IL-17RA by monitoring the fluorescence intensity of donor vs acceptor. The assay was run using either Protocol 1 or Protocol 2 as described below.
Protocol 2. 40 nl of 2-fold serial diluted compound solution for total 22 dilution points is added into each well of a 1536-well, white, low-volume, non-binding plate (Greiner #782904), then 2 μl of FLAG tagged IL-17A at 2× final concentration (1 nM) in solution of PBS+0.01% Triton-X100 is added to each well. The assay plate is briefly centrifuged then incubated for 1 h at rt. A mixed solution is prepared containing 2×5 nM 10HIS×IL-17RA, 2×2.5 nM Eu-anti-FLAG (CISBIO), 2×5 nM D2-anti-HIS (CISBIO) in PBS+0.01% Triton-X100+200 mM Potassium Fluoride (Sigma 60238) and 2 μl of mix is added to each well of the assay plate. The plate is briefly centrifuged then incubated for 2 h at rt. The HTRF intensities at the wavelength of donor (615 nm) and acceptor (665 nm) are measured using BMG Pherastar. The ratio between intensities at two wavelengths is calculated and plotted against the compound concentration and the data is fitted to a one-site competition model to yield IC50 of the compound.

[3] = system: IL-17A-induced G-CSF production in human normal keratinocyte (NHK); assay: NHK Assay: IL-17A-induced G-CSF production in human normal keratinocyte; assay type: cell-based; conditions: Homo sapiens, Keratinocyte, 24 h, IL-17A 5 ng/mL, simple average if tested more than once
How it was run: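 Stimulus rhIL-17A 5 ng/mL final, premixed 1 h rt with compound; adult NHK, 5% FBS, 0.2% DMSO. Viability by CellTiter-Glo vs DMSO.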

[4] = system: patients with moderate-to-severe HS; conditions: seven of nine patients with moderate-to-severe HS, open-label pilot-trial; cited from earlier work

T1 sequence (Q16552 with tags, fused parts or gaps K93Q): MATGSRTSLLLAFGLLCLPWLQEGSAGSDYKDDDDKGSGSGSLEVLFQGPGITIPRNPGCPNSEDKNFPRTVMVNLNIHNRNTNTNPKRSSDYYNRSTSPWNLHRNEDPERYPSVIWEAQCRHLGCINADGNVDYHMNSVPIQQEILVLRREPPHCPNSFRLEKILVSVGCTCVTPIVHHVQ

Compound | IC50 [1] | IC50 [2] | IC50 [3] | patients achieved HiSCR [4]
CC(C)n1ncc(F)c1C(=O)N[C@@H](COC(C)(C)C(F)(F)F)c1nc2cc(CN3CC(C(F)(F)F)NC3=O)ccc2[nH]1 (single isomer, unassigned) [Example 32, 4-Fluoro-1-isopropyl-N—((R)-1-(5-(((S*)-2-oxo-4-(trifluoromethyl)imidazolidin-1-yl)methyl)-1H-benzo[d]imidazol-2-yl)-2-((1,1,1-trifluoro-2-methylpropan-2-yl)oxy)ethyl)-1H-pyrazole-5-carboxamide] | < 50 nM | < 50 nM | 50 to 100 nM | –
COC[C@H](c1ccc2[nH]c(C(COC(C)(C)C(F)(F)F)NC(=O)c3ncnn3C(C)C)nc2c1)N1CC(F)(F)CNC1=O (single isomer, unassigned) [Example 52, N—((R*)-1-(5-((S)-1-(5,5-Difluoro-2-oxotetrahydropyrimidin-1(2H)-yl)-2-methoxyethyl)-1H-benzo[d]imidazol-2-yl)-2-((1,1,1-trifluoro-2-methylpropan-2-yl)oxy)ethyl)-1-isopropyl-1H-1,2,4-triazole-5-carboxamide] | < 50 nM | < 50 nM | < 50 nM | –
CC(C)n1nccc1C(=O)NC(c1nc2nc([C@@H](C3CC3)N3CC(F)(F)CNC3=O)ccc2[nH]1)[C@@H](C)O[C@H](C)C(F)(F)F (single isomer, unassigned) [Example 75, N-((1R*,2R)-1-(5-((R)-Cyclopropyl(5,5-difluoro-2-oxotetrahydropyrimidin-1(2H)-yl)methyl)-1H-imidazo[4,5-b]pyridin-2-yl)-2-(((R)-1,1,1-trifluoropropan-2-yl)oxy)propyl)-1-isopropyl-1H-pyrazole-5-carboxamide] | > 100 nM | > 100 nM | < 50 nM | –
Cc1nonc1C(=O)N[C@@H](COC(C)(C)C(F)(F)F)c1nc2cc([C@@H](C3CC3)N3C[C@@H](C(C)C)NC3=O)ccc2[nH]1 [Example 83, N—((R)-1-(5-((R)-Cyclopropyl((R)-4-isopropyl-2-oxoimidazolidin-1-yl)methyl)-1H-benzo[d]imidazol-2-yl)-2-((1,1,1-trifluoro-2-methylpropan-2-yl)oxy)ethyl)-4-methyl-1,2,5-oxadiazole-3-carboxamide] | < 50 nM | < 50 nM | < 50 nM | –
secukinumab | – | – | – | 78%
